The text below walks through data of US7094802B2, “PKB-3564 substance with neovascularization inhibitory activity” (Riken, priority 2001, dated 2006).

One data set has as its system Jurkat cells. Put plainly: Suppression of Fas antibody-induced apoptosis, survival rate by MTT method. It is filed as cell-based. The settings on record: Homo sapiens, Fas antibody CH-11 100 ng/ml, 6 hours, read-out: concentration that inhibited 50% of apoptosis induced by Fas antibody. The method, then: Jurkat cells, an […] T cell leukemia cell line expressing Fas, were used as Fas antibody sensitive cells. The Jurkat cells were cultured in a RPMI medium containing 10% calf serum in an incubator that contained 5% carbon dioxide and was saturated with stream. The Jurkat cells in the logarithmic proliferation period were added with RKB-3564A, RKB-3564B, RKB-3564D, RKB-3564E, and RKB-3564F in a series of dilution, and cultured in the presence of Fas antibody, CH-11 (Medical & Biological Laboratories Co., Ltd., 100 ng/ml) for 6 hours, and the survival rate of the cells was assayed by the MTT method. The survival rate was calculated according to the following formula. Survival rate (%)={[(absorbance in the presence of anti-Fas antibody and the compound)−(absorbance in the presence of anti-Fas antibody and in the absence of the compound)]/[(absorbance in the absence of anti-Fas antibody and the compound)−(absorbance in the presence of anti-Fas antibody and in the absence of the compound)]}×100

Converted amounts (≈) assume the structure as drawn.

With `CC1OC2C3=C(C(=O)C4OC4C3O)C1C1C(C)OC=C3C(O)C4OC4C(=O)C321` (single isomer, unassigned) [RKB-3564A], the IC50 in the data set on Jurkat cells was in the range of 3 to 10 mg/L (≈ 7.72 to 25.7 µM).

For `CC1OC2C3=C(C(=O)C4OC4C3O)C1C1C(C)OC=C3C(O)C4OC4C(=O)C321` (centres unmarked) [RKB-3564E], in the data set on Jurkat cells, the IC50 is 3 to 10 mg/L (≈ 7.72 to 25.7 µM).

Take `CC1OC2C3=C(C(=O)C4OC4C3O)C1C1C3=C(C(O)C4OC4C3=O)C2OC1C` (centres unmarked) [RKB-3564D]: the “Solubility in methanol or dimethyl sulfoxide” value in “Solubility in solvents” (methanol or dimethyl sulfoxide) is “easily soluble”. The Solubility in n-hexane entry in the data set “Solubility in solvents” (n-hexane) is reported as “Insoluble”. Besides, the IC50 with Jurkat cells lay in the range of 3 to 10 mg/L (≈ 7.72 to 25.7 µM).
